These results are taken from ChEMBL document CHEMBL3045339, “Synthesis of benzoxazoles, benzothiazoles and benzimidazoles and evaluation of their antifungal, insecticidal and herbicidal activities” (1992).

SMILES strings stand for the structures. Values after ≈ are worked out from the molar mass of the structure shown.

Type in all cases: functional
The subject of one test is Pseudomonas aeruginosa. As to the kind of experiment: Antibacterial activity against Pseudomonas aeruginosa after 48 hr.
A further test relates to Bacillus subtilis. As to the kind of experiment: Antibacterial activity against Bacillus subtilis after 48 hr.
For a further test, the system named is Fusarium fujikuroi. Description: Antifungal activity against Fusarium fujikuroi after 7 days. The arrangement: concentration or dose not given beside the values.
A further test has as its system Oryza sativa. As to the kind of experiment: Herbicidal activity against Oryza sativa assessed as disease control at 1000 ppm treated in paddy field during 15 to 20 days relative to control.
Test [1] has as its system Amaranthus viridis. As to the kind of experiment: Herbicidal activity against Amaranthus viridis assessed as disease control at 1000 ppm treated in soil during 15 to 20 days relative to control.
The subject of test [2] is Echinochloa crus-galli. As to the kind of experiment: Herbicidal activity against Echinochloa crus-galli (barnyard grass) assessed as disease control at 1000 ppm treated in paddy field during 15 to 20 days relative to control.
Test [3] has as its system Persicaria hydropiper. Description: Herbicidal activity against Persicaria hydropiper assessed as disease control at 1000 ppm treated in soil during 15 to 20 days relative to control.
Another test relates to Xanthomonas axonopodis. Description: Antibacterial activity against Xanthomonas axonopodis after 7 days. The arrangement: concentration or dose not given beside the values.
Test [4] relates to Pseudoperonospora cubensis. As to the kind of experiment: Antifungal activity against Pseudoperonospora cubensis after 7 days. The arrangement: concentration or dose not given beside the values.
The subject of a further test is Pyricularia oryzae. Description: Antifungal activity against Magnaporthe oryzae after 7 days. The arrangement: concentration or dose not given beside the values.
In test [5] the test system is Eleusine indica. As to the kind of experiment: Herbicidal activity against Eleusine indica assessed as disease control at 1000 ppm treated in foliage during 15 to 20 days relative to control.
Test [6] has as its system Chenopodium album. As to the kind of experiment: Herbicidal activity against Chenopodium album assessed as disease control at 1000 ppm treated in soil during 15 to 20 days relative to control.
Test [7] deals with Persicaria hydropiper. As to the kind of experiment: Herbicidal activity against Persicaria hydropiper assessed as disease control at 1000 ppm treated in foliage during 15 to 20 days relative to control.
The subject of the next test is Escherichia coli. Description: Antibacterial activity against Escherichia coli after 48 hr.
The subject of test [8] is Echinochloa crus-galli. As to the kind of experiment: Herbicidal activity against Echinochloa crus-galli (barnyard grass) assessed as disease control at 1000 ppm treated in soil during 15 to 20 days relative to control.
Test [9] deals with Chenopodium album. As to the kind of experiment: Herbicidal activity against Chenopodium album assessed as disease control at 1000 ppm treated in foliage during 15 to 20 days relative to control.
In test [10] the test system is Echinochloa crus-galli. Description: Herbicidal activity against Echinochloa crus-galli (barnyard grass) assessed as disease control at 1000 ppm treated in foliage during 15 to 20 days relative to control.
In another test the test system is Botrytis cinerea. Description: Antifungal activity against Botryotinia fuckeliana after 7 days. The arrangement: concentration or dose not given beside the values.
Another test relates to Cyperus compressus. As to the kind of experiment: Herbicidal activity against Cyperus compressus assessed as disease control at 1000 ppm treated in paddy field during 15 to 20 days relative to control.
Test [11] relates to Eleusine indica. As to the kind of experiment: Herbicidal activity against Eleusine indica assessed as disease control at 1000 ppm treated in soil during 15 to 20 days relative to control.
The test system of test [12] is Amaranthus viridis. Description: Herbicidal activity against Amaranthus viridis assessed as disease control at 1000 ppm treated in foliage during 15 to 20 days relative to control.
A further test deals with Staphylococcus aureus. Description: Antibacterial activity against Staphylococcus aureus after 48 hr.
In a further test the test system is Mycobacterium. As to the kind of experiment: Antibacterial activity against Mycobacterium ovicum after 48 hr.
For another test, the system named is Panonychus citri. As to the kind of experiment: Insecticidal activity against Panonychus citri at 500 ppm up to 21 days.

As for `c1ccc2nc(-c3nc4ccccc4[nH]3)ccc2c1`, the MIC in the test with Pseudomonas aeruginosa stood at 100 µg/mL (≈ 408 µM).

In the case of `Cc1ccc2nc(-c3ccccn3)[nH]c2c1`, the MIC against Bacillus subtilis turned out to be 100 µg/mL (≈ 478 µM); in the test on Escherichia coli, 50 µg/mL (≈ 239 µM). The Activity with Fusarium fujikuroi is recorded as <39%; in the test on Oryza sativa, <39%; in the test on Amaranthus viridis [1] it was <39%; in the test on Echinochloa crus-galli [2], <39%; in the test with Persicaria hydropiper [3], <39%; in the test on Xanthomonas axonopodis, 40%. Further, the Activity in [4] is listed as 60%; with Pyricularia oryzae, 60%; with Eleusine indica [5], <39%; with Chenopodium album [6], <39%; in the test with Persicaria hydropiper [7] it was <39%; in the test with Echinochloa crus-galli [8], <39%. The Activity is recorded as 60% with Chenopodium album [9]; <39% with Echinochloa crus-galli [10]; <39% in the test on Botrytis cinerea; <39% in the test on Cyperus compressus; <39% with Eleusine indica [11]; 40% in the test with Amaranthus viridis [12].

`O=[N+]([O-])c1ccc2[nH]c(-c3ccccn3)nc2c1`: the MIC is 50 µg/mL (≈ 208 µM) against Bacillus subtilis; 100 µg/mL (≈ 416 µM) in the test with Pseudomonas aeruginosa; 10 µg/mL (≈ 41.6 µM) against Escherichia coli; 50 µg/mL (≈ 208 µM) with Staphylococcus aureus; 50 µg/mL (≈ 208 µM) against Mycobacterium. For the same compound, the Activity in the test on Fusarium fujikuroi is <39%; in the test with Oryza sativa it was <39%; with Amaranthus viridis [1], <39%; in the test with Echinochloa crus-galli [2], <39%; with Persicaria hydropiper [3], <39%; in the test on Xanthomonas axonopodis, 40%. The Activity was <39% in [4]; 60% with Pyricularia oryzae; <39% in the test on Eleusine indica [5]; <39% in the test with Chenopodium album [6]; <39% with Persicaria hydropiper [7]; <39% with Echinochloa crus-galli [8]. In addition, the Activity in the test on Chenopodium album [9], in the test with Echinochloa crus-galli [10], with Botrytis cinerea, with Cyperus compressus, in the test with Eleusine indica [11] and in the test with Amaranthus viridis [12] was <39% each time.

Take `c1ccc(-c2nc3ccccc3[nH]2)nc1`: the MIC against Bacillus subtilis and with Pseudomonas aeruginosa was 100 µg/mL (≈ 512 µM) in each case. Moreover, the Activity in the test with Fusarium fujikuroi is <39%; with Oryza sativa, <39%; in the test on Amaranthus viridis [1], <39%; with Echinochloa crus-galli [2] it was <39%; in the test with Persicaria hydropiper [3], <39%; in the test with Xanthomonas axonopodis, 60%. The Activity was >80% in [4]; <39% in the test on Pyricularia oryzae; <39% in the test on Eleusine indica [5]; <39% with Chenopodium album [6]; <39% in the test with Persicaria hydropiper [7]; <39% in the test on Echinochloa crus-galli [8]. For the same compound, the Activity is reported as <39% in the test on Chenopodium album [9]; <39% with Echinochloa crus-galli [10]; 60% in the test with Botrytis cinerea; <39% in the test on Cyperus compressus; <39% in the test on Eleusine indica [11]; <39% in the test on Amaranthus viridis [12].

In the case of `Clc1cccc2nc(-c3ccccn3)[nH]c12`, the Activity in the test on Fusarium fujikuroi is <39%; in the test on Oryza sativa, <39%; with Amaranthus viridis [1], <39%; with Echinochloa crus-galli [2] it was <39%; in the test with Persicaria hydropiper [3], <39%; in the test on Xanthomonas axonopodis, 60%. Moreover, the Activity in [4] is <39%; in the test with Pyricularia oryzae, >80%; in the test with Eleusine indica [5], <39%; in the test on Chenopodium album [6], <39%; in the test on Persicaria hydropiper [7], <39%; in the test with Panonychus citri, 91.5%. For the same compound, the Activity in the test on Echinochloa crus-galli [8] is on record as <39%; in the test with Chenopodium album [9] it was <39%; in the test with Echinochloa crus-galli [10], <39%; in the test on Botrytis cinerea, >80%; with Cyperus compressus it was <39%; in the test with Eleusine indica [11], <39%. Moreover, in the test with Amaranthus viridis [12], the Activity is <39%.

As for `c1ccc2[nH]c(-c3ccncc3)nc2c1`, the MIC against Pseudomonas aeruginosa was determined as 100 µg/mL (≈ 512 µM).

Regarding `c1ccc2[nH]c(-c3ccnc4ccccc34)nc2c1`, the MIC in the test on Bacillus subtilis, in the test on Pseudomonas aeruginosa and against Escherichia coli was 100 µg/mL (≈ 408 µM) each time.

With `CCOc1ccc2sc(-c3ccncc3)nc2c1`, the Activity with Fusarium fujikuroi, with Oryza sativa, with Amaranthus viridis [1], in the test with Echinochloa crus-galli [2], with Persicaria hydropiper [3] and with Xanthomonas axonopodis was <39% in each case. The Activity (in test [4]; in the test on Pyricularia oryzae; in the test with Eleusine indica [5]; with Chenopodium album [6]; in the test with Persicaria hydropiper [7]; with Echinochloa crus-galli [8]) was <39% in each case. In addition, the Activity with Chenopodium album [9] was <39%; in the test with Echinochloa crus-galli [10], <39%; in the test with Botrytis cinerea it was <39%; in the test on Cyperus compressus, >80%; with Eleusine indica [11], <39%; in the test with Amaranthus viridis [12], <39%.

Consider `Cc1cccc2[nH]c(-c3ccccn3)nc12`, for which the Activity in the test with Fusarium fujikuroi, in the test with Oryza sativa, with Amaranthus viridis [1], with Echinochloa crus-galli [2], in the test with Persicaria hydropiper [3] and in the test with Xanthomonas axonopodis was <39% in each case. Moreover, the Activity is given as <39% in test [4]; 40% with Pyricularia oryzae; <39% in the test on Eleusine indica [5]; <39% in the test with Chenopodium album [6]; <39% in the test on Persicaria hydropiper [7]; <39% in the test on Echinochloa crus-galli [8]. The Activity with Chenopodium album [9] is reported as <39%; with Echinochloa crus-galli [10], <39%; in the test on Botrytis cinerea, 60%; in the test on Cyperus compressus it was <39%; in the test on Eleusine indica [11], <39%; in the test with Amaranthus viridis [12], <39%.

For the compound `FC(F)(F)c1ccc2sc(-c3ccccn3)nc2c1`, the Activity in the test with Fusarium fujikuroi was <39%; in the test with Oryza sativa, <39%; in the test with Amaranthus viridis [1] it was 60%; in the test on Echinochloa crus-galli [2], >80%; in the test with Persicaria hydropiper [3], <39%; in the test on Xanthomonas axonopodis, <39%. In addition, the Activity in test [4] is listed as <39%; in the test with Pyricularia oryzae, <39%; with Eleusine indica [5], <39%; with Chenopodium album [6], <39%; in the test on Persicaria hydropiper [7], <39%; with Panonychus citri, 81.3%. The Activity is reported as <39% with Echinochloa crus-galli [8]; >80% with Chenopodium album [9]; <39% with Echinochloa crus-galli [10]; <39% in the test with Botrytis cinerea; >80% with Cyperus compressus; <39% in the test on Eleusine indica [11]. For the same compound, the Activity with Amaranthus viridis [12] is >80%.

On to `c1ccc2nc(-c3nc4ccccc4o3)ccc2c1`, for which the Activity is on record as <39% with Fusarium fujikuroi; 40% in the test on Oryza sativa; <39% in the test with Amaranthus viridis [1]; <39% with Echinochloa crus-galli [2]; <39% in the test on Persicaria hydropiper [3]; <39% with Xanthomonas axonopodis. For the same compound, the Activity (in [4]; with Pyricularia oryzae; with Eleusine indica [5]; in the test with Chenopodium album [6]; in the test on Persicaria hydropiper [7]; in the test with Echinochloa crus-galli [8]) was <39% in each case. In addition, the Activity in the test on Chenopodium album [9], in the test on Echinochloa crus-galli [10], with Botrytis cinerea, with Cyperus compressus, with Eleusine indica [11] and with Amaranthus viridis [12] was <39% in each case.

With `c1ccc2nc(-c3nc4ccccc4s3)ccc2c1`, the Activity in the test on Fusarium fujikuroi, with Oryza sativa, in the test on Amaranthus viridis [1], in the test on Echinochloa crus-galli [2], in the test with Persicaria hydropiper [3] and with Xanthomonas axonopodis was <39% throughout. Further, the Activity (in test [4]; in the test on Pyricularia oryzae; in the test with Eleusine indica [5]; in the test on Chenopodium album [6]; with Persicaria hydropiper [7]; with Echinochloa crus-galli [8]) was <39% throughout. Besides, the Activity in the test with Chenopodium album [9], with Echinochloa crus-galli [10], with Botrytis cinerea, in the test with Cyperus compressus, with Eleusine indica [11] and in the test with Amaranthus viridis [12] was <39% throughout.

As a reminder, the MIC is the least concentration at which growth counts as inhibited.
